Test results as given in patent US10035799B2, “COMT inhibiting methods and compositions” (Lieber Institute for Brain Development, priority 2015, dated 2018).

What follows are compounds tested against T1, catechol-O-methyltransferase (COMT) (Homo sapiens, UniProt P21964) (assay: COMT inhibition assay (HTRF, production of S-adenosyl homocysteine)). Details: recombinant human COMT, HTRF SAH production; MB-COMT or S-COMT not stated for Table 1.
T1 construct: M51A variant) was expressed in HEK 293F cells
T1 sequence (P21964 52-271 limits assumed): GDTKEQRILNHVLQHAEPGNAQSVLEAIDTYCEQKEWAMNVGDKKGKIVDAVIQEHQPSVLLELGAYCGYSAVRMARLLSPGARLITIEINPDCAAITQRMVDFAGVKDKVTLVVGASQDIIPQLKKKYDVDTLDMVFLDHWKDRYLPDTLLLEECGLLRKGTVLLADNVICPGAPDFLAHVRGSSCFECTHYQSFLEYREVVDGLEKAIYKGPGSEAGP
Format: biochemical
Experimental: The ability of compounds to inhibit the activity of catechol-O-methyltransferase (COMT) was determined by a homogenous time-resolved fluorescent (HTRF) assay (Lina et al, 2012; kit from CisBio, Codolet, France). This assay measures the production of S-adenosyl homocysteine (SAH) from the methyl donor S-adenosyl methionine. Recombinant human membrane bound COMT (MB-COMT; M51A variant) was expressed in HEK 293F cells using 293Fectin (Life Technologies, Gent, Belgium) and membranes prepared. The membranes were re-suspended in buffer (20 mM Tris/HCl pH 7; 10 mM glycerol; 2 mM MgCl2; 10 mM NaCl), aliquoted and stored at −80° C. Recombinant human soluble COMT(S-COMT), Va1158 variant and a hexa-His tag on the N-terminus, was purified using Ni-NTA chromatography, the His tag removed and stored in buffer as above.
For the human MB-COMT assay, membranes (62 ng/well) were incubated with SAM (20 μM final, CisBio) and dopamine (1.5 μM final; Sigma H8502, Diegem, Belgium) in the presence or absence of varying concentrations (typically 10 concentrations ranging from 10 μM to 0.1 nM) of compound for 40 min at 37° C. in 384-well microtitre plates (10 μl per well final volume). The reaction was terminated by the addition of acylation buffer and the amount of SAH produced determined according to manufacturer's instructions. Specific inhibition as that inhibited by a high concentration of tolcapone (10 μM; synthesised at UCB) and all experiments were validated using a control curve to tolcapone.
The human S-COMT assay was performed as above except that 0.15 ng enzyme/well was incubated with SAM (20 μM final) and dopamine (100 μM final) for 15 min at 37° C. and SAH production determined.
HTRF readings were performed using a Perkin Elmer Envision and results expressed as concentration of SAH produced using a standard curve. Results were analysed using non-linear regression to the 4-parameter logistic equation and pIC50 (−log 10 concentration of drug which inhibits enzyme activity/SAH production by 50%) determined.

| SMILES | Activity range (pIC50, COMT inhibition) |
| --- | --- |
| O=S(=O)(c1cc(Br)c(O)c2ncccc12)N1CCN(Cc2ccc(F)cc2)CC1 [Example 121, 7-bromo-5-[4-[(4-fluorophenyl)methyl]piperazin-1-yl]sulfonyl-quinolin-8-ol] | + (a pIC50 of from about 4.5 to 6) |
| O=S(=O)(c1ccc(O)c2ncccc12)N1CCOCC1 [Example 64, 5-(4-morpholin-1-yl)sulfonylquinolin-8-ol] | ++ (a pIC50 of from about great than 6 to 7) |
| Cc1cc(S(=O)(=O)N2CCCC2)c2cccnc2c1O [Example 111, 7-methyl-5-pyrrolidin-1-ylsulfonyl-quinolin-8-ol] | +++ (a pIC50 of above about 7) |
| O=S(=O)(c1ccc(O)c2ncccc12)N1CCCCC1 [Example 63, 5-(piperidin-1-yl)sulfonylquinolin-8-ol] | +++ (a pIC50 of above about 7) |
| O=S(=O)(c1ccc(O)c2ncccc12)N1CCN(c2ccccc2-c2ccccc2)CC1 [Example 92, 5-[4-(2-phenylphenyl)piperazin-1-yl]sulfonylquinolin-8-ol] | ++ (a pIC50 of from about great than 6 to 7) |
| Cc1cccc(N2CCN(S(=O)(=O)c3ccc(O)c4ncccc34)CC2)c1C [Example 100, 5-[4-(2,3-dimethylphenyl)piperazin-1-yl]sulfonylquinolin-8-ol] | ++ (a pIC50 of from about great than 6 to 7) |
| O=S(=O)(c1ccc(O)c2ncccc12)N1CCN(c2ccc(Cl)cn2)CC1 [Example 69, 5-[4-(5-chloro-2-pyridyl)piperazin-1-yl]sulfonylquinolin-8-ol] | ++ (a pIC50 of from about great than 6 to 7) |
| O=S(=O)(c1cccnc1)c1ccc(O)c2ncccc12 [Example 19, 5-(3-pyridylsulfonyl)quinolin-8-ol] | ++ (a pIC50 of from about great than 6 to 7) |
| CC(C)C1CCCN1S(=O)(=O)c1ccc(O)c2ncccc12 (centres unmarked) [Example 78, 5-(2-isopropylpyrrolidin-1-yl)sulfonylquinolin-8-ol] | +++ (a pIC50 of above about 7) |
| CCN(CC)S(=O)(=O)c1ccc(O)c2ncccc12 [Example 68, N,N-diethyl-8-hydroxy-quinoline-5-sulfonamide] | ++ (a pIC50 of from about great than 6 to 7) |
| COC(=O)N1CCN(S(=O)(=O)c2ccc(O)c3ncccc23)CC1 [Example 88, methyl 4-[(8-hydroxy-5-quinolyl)sulfonyl]piperazine-1-carboxylate] | +++ (a pIC50 of above about 7) |
| O=S(=O)(c1cc(Cl)cc(Cl)c1)c1ccc(O)c2ncccc12 [Example 8, 5-(3,5-dichlorophenyl)sulfonylquinolin-8-ol] | ++ (a pIC50 of from about great than 6 to 7) |
| COCCCN1CCN(S(=O)(=O)c2ccc(O)c3ncccc23)CC1 [Example 89, 5-[4-(3-methoxypropyl)piperazin-1-yl]sulfonylquinolin-8-ol] | ++ (a pIC50 of from about great than 6 to 7) |
| Cc1ccc(S(=O)(=O)c2cc(Br)c(O)c3ncccc23)cc1 [Example 108, 7-bromo-5-(p-tolylsulfonyl)quinolin-8-ol] | ++ (a pIC50 of from about great than 6 to 7) |
| N#Cc1ccccc1N1CCN(S(=O)(=O)c2ccc(O)c3ncccc23)CC1 [Example 90, 2-[4-[(8-hydroxy-5-quinolyl)sulfonyl]piperazin-1-yl]benzonitrile] | +++ (a pIC50 of above about 7) |
| Cc1ccc(CNS(=O)(=O)c2ccc(O)c3ncccc23)cc1 [Example 44, 8-hydroxy-N-(4-methylbenzyl)quinoline-5-sulfonamide] | ++ (a pIC50 of from about great than 6 to 7) |
| CC(C)(C)OC(=O)N1CCN(S(=O)(=O)c2ccc(O)c3ncccc23)CC1 [Example 103, tert-butyl 4-[(8-hydroxy-5-quinolyl)sulfonyl]piperazine-1-carboxylate] | ++ (a pIC50 of from about great than 6 to 7) |

Second part, the compound after the results:

| Activity range (pIC50, COMT inhibition) | SMILES |
| --- | --- |
| +++ (a pIC50 of above about 7) | CN(Cc1cccnc1)S(=O)(=O)c1ccc(O)c2ncccc12 [Example 54, 8-hydroxy-N-methyl-N-(3-pyridylmethyl)quinoline-5-sulfonamide] |
| +++ (a pIC50 of above about 7) | O=S(=O)(c1ccc(O)c2ncccc12)N1CCc2ccccc2C1 [Example 40, 5-(3,4-dihydro-1H-isoquinolin-2-ylsulfonyl)quinolin-8-ol] |
| +++ (a pIC50 of above about 7) | C[C@@H](c1ccccc1)N(C)S(=O)(=O)c1ccc(O)c2ncccc12 [Example 51, 8-hydroxy-N-methyl-N-[(1S)-1-phenylethyl]quinoline-5-sulfonamide] |
| + (a pIC50 of from about 4.5 to 6) | O=S(=O)(c1ccc(O)c2ncccc12)N1CCNCC1 [Example 104, 5-piperazin-1-ylsulfonylquinolin-8-ol] |
| +++ (a pIC50 of above about 7) | Cc1cnccc1S(=O)(=O)c1ccc(O)c2ncccc12 [Example 27, 5-[(3-methyl-4-pyridyl)sulfonyl]quinolin-8-ol] |
| +++ (a pIC50 of above about 7) | O=S(=O)(c1ccc(O)c2ncccc12)N1Cc2ccccc2C1 [Example 47, 5-isoindolin-2-ylsulfonylquinolin-8-ol] |
| +++ (a pIC50 of above about 7) | Cc1ccc(CCS(=O)(=O)c2ccc(O)c3ncccc23)cc1 [Example 29, 5-[2-(p-tolyl)ethylsulfonyl]quinolin-8-ol] |
| +++ (a pIC50 of above about 7) | O=S(=O)(c1cccc(C(F)(F)F)c1)c1ccc(O)c2ncccc12 [Example 13, 5-[3-(trifluoromethyl)phenyl]sulfonylquinolin-8-ol] |
| +++ (a pIC50 of above about 7) | O=S(=O)(c1ccc2ccccc2c1)c1ccc(O)c2ncccc12 [Example 12, 5-(2-naphthylsulfonyl)quinolin-8-ol] |
| +++ (a pIC50 of above about 7) | C[C@H](c1ccccc1)N(C)S(=O)(=O)c1ccc(O)c2ncccc12 [Example 50, 8-hydroxy-N-methyl-N-[(1R)-1-phenylethyl]quinoline-5-sulfonamide] |
| + (a pIC50 of from about 4.5 to 6) | CC1CNCCN1S(=O)(=O)c1ccc(O)c2ncccc12 (centres unmarked) [Example 106, 5-(2-methylpiperazin-1-yl)sulfonylquinolin-8-ol] |
| +++ (a pIC50 of above about 7) | O=S(=O)(c1cccc(Cl)c1)c1ccc(O)c2ncccc12 [Example 14, 5-(3-chlorophenyl)sulfonylquinolin-8-ol] |
| +++ (a pIC50 of above about 7) | CCN(Cc1ccccc1)S(=O)(=O)c1ccc(O)c2ncccc12 [Example 56, N-benzyl-N-ethyl-8-hydroxy-quinoline-5-sulfonamide] |
| +++ (a pIC50 of above about 7) | O=S(=O)(c1ccc(C(F)(F)F)cc1)c1ccc(O)c2ncccc12 [Example 11, 5-[4-(trifluoromethyl)phenyl]sulfonylquinolin-8-ol] |
| +++ (a pIC50 of above about 7) | O=S(=O)(c1ccc(O)c2ncccc12)N1CCCC1 [Example 59, 5-pyrrolidin-1-ylsulfonylquinolin-8-ol] |
